Like-named read-outs stand apart in the source and are kept apart here.
Columns and labels:
Type in all cases: cell-based
[1] = tested on: HeLa cervical adenocarcinoma (epithelial) cells; assay: Cytotoxicity assay (WST-1); details: 100 μM test compound, 72 hours
Description: (§1) HeLa cervical adenocarcinoma (epithelial) cells were cultured in the presence of 100 μM of test compound for 72 hours and cell viability was measured using the WST-1 tetrazolium salt (cleaved to formazan by mitochondrial respiratory chain enzymes, which are only active in viable cells). The absorbance of the dye solution was measured at 450 nm. Controls included cells alone, 0.05% NP-40 plus cells (100% cytotoxicity control) and each of the compound vehicles alone, DMSO or water at the same final concentration in medium as the compound in test wells. % Cytotoxicity was calculated as follows: % cytotoxicity=100×(1-ODtest compound/ODcells alone).

rat aorta ring = assay: Rat aorta assay for angiogenesis inhibition (rat aorta ring model); details: for inhibition at 0.5 µg/mL: 0.5 μg/mL; for inhibition at 1 µg/mL: 1 μg/mL
Excerpt: Rat Aorta Assay for Angiogenesis Inhibition
The rat aorta ring model based on that described by Nicosia and Ottinetti (Nicosia, R. F. et al. Lab. Investigation 63: 115, 1990; Nicosia, R. F. et al. Cell. Dev. Biol. 26: 119-128, 1990), was used throughout the assay.
The agarose was made up as a 1.5% solution in distilled water and brought to the boil to form a clear solution which was poured into sterile 9 cm petri dishes, covered and allowed to cool and set.
Maintaining sterile conditions, agarose rings were obtained by punching two concentric circles, with sterile10 and 17 mm hole punches, respectively, in the agarose gel. Using sterile forceps, the rings are removed and placed, three per well in each of the 6-well plates.
The MEM was prepared according to manufacturer's directions, but before filtering through a 0.22 μm filter, HEPES and L-glutamine were added to give 10 mM and 1 mM concentrations respectively with pH adjusted to 7.4. Eight hundred mL of this medium were filtered through a 0.2 μm filter along with the antibiotics (50 mg/L Gentamycin sulphate and 2.5 mg/L Amphotericin B) and 200 mL of FCS (to give 20%) to yield one litre of medium.
The aorta was removed from a 3-4 month male Copenhagen rat and transferred to a dissecting dish where it was cleaned and carefully stripped of the fibroadipose tissue surrounding it. Rings of 0.5 mm were cut, using a fresh scalpel blade, from the length of the aorta. These were kept under sterile conditions in a biohazard hood where they were washed 12 times with MEM.
Before transferring the aortic rings to the culture plate, the bottom of each agarose well was coated with 150 μL of clotting fibrinogen. Fibrinogen was made up as a 3 mg/mL solution in MEM, while thrombin made up in distilled water to give a concentration of 50 U/mL. The fibrinogen (1 mL) and the thrombin (20 μL) reacted within 30 sec to form a solid gel.
The aortic rings were transferred to the 6-well plates, with one ring placed in the center of each agarose well. Fresh fibrinogen/thrombin was made up as before and 150 μL was used to seal in each aortic ring. The gels were rested for approximately 2 hours before the medium was added.
[…] The compounds were made up as 6 mg/mL solution in water or DMSO. The test solutions were added to each well with the medium.
Six mL of MEM were carefully added to each of three wells to become the controls. MEM, along with the test compounds were added to the remaining wells and all were covered and transferred to the CO2 Incubator at 37° C., where they were kept for the next 14 days.
However, by the fifth day, there were noticeable changes in the tissue. Micro-vessels were seen and scored. We have based the scoring method on that used by Liekens et al. (Liekens, S., et al. Oncol. Res. 9: 173-181, 1997) in which 0 meant no vessels and 10 meant maximum vessels; the score is then converted into a percentage inhibition of vessel growth.

HUVEC [2] = assay: Growth inhibition assay (crystal violet); details: HUVEC proliferation, 72 h
Description: HUVEC (1.5×10^3) are plated in a 96-well plate in 100 μL of EBM-2 (Clonetic # CC3162). After 24 h (day 0), the test compound (100 μL) is added to each well at twice the desired concentration (5-7 concentration levels) in EBM-2 medium. On day 0, one plate is stained with 0.5% crystal violet in 20% methanol for 10 minutes, rinsed with water, and air-dried. The remaining plates are incubated for 72 h at 37° C. After 72 h, plates are stained with 0.5% crystal violet in 20% methanol, rinsed with water and air-dried. The stain is eluted with 1:1 solution of ethanol:0.1M sodium citrate (including day 0 plate), and absorbance is measured at 540 nm with an ELISA reader (Dynatech Laboratories). Day 0 absorbance is subtracted from the 72 h plates and data is plotted as percentage of control proliferation (vehicle treated cells). IC50 (drug concentration causing 50% inhibition) is calculated from the plotted data.

[3] = Cytotoxicity assay (WST-1); details: human, HeLa cervical adenocarcinoma (epithelial) cells, 100 μM test compound
Description: as §1

HUVEC [4] = assay: Cord formation assay on matrigel; details: Homo sapiens, 24 h incubation
Description: Matrigel (60 μL of 10 mg/mL) is placed in each well of an ice-cold 96-well plate. The plate is allowed to sit at room temperature for 15 minutes then incubated at 37° C. for 30 minutes to permit the matrigel to polymerize. In the mean time, HUVEC are prepared in EGM-2 (Clonetic # CC3162) at a concentration of 2×10^5 cells/mL. The test compound is prepared at twice the desired concentration (5 concentration levels) in the same medium. Cells (50 μL) and 2×drug […] is mixed and 200 μL of this suspension are placed in duplicate on the polymerized matrigel. After 24 h incubation, triplicate pictures are taken for each concentration using a Bioquant Image Analysis system. Drug effect (IC50) is assessed compared to untreated controls by measuring the length of cords formed and number of junctions.

HUVEC [5] = assay: Cell migration assay (Boyden chamber); details: Homo sapiens, 5 h incubation
Description: Migration is assessed using the 48-well Boyden chamber and 8 μm pore size collagen-coated (10 μg/mL rat tail collagen; Collaborative Laboratories) polycarbonate filters (Osmonics, Inc.). The bottom chamber wells receive 27-29 μL of DMEM medium alone (baseline) or medium containing chemo-attractant (bFGF, VEGF or Swiss 3T3 cell conditioned medium). The top chambers receive 45 μL of HUVEC cell suspension […] prepared in DMEM+1% BSA with or without test compound. After 5 h incubation at 37° C., the membrane is rinsed in PBS, fixed and stained in Diff-Quick solutions. The filter is placed on a glass slide with the migrated cells facing down and cells on top are removed using a Kimwipe. The testing is performed in 4-6 replicates and five fields are counted from each well. Negative unstimulated control values are subtracted from stimulated control and drug treated values and data is plotted as mean migrated cell±S.D. IC50 is calculated from the plotted data.

[6] = Rattus norvegicus, 120 h, 4 μg/mL, day 5, read-out: Growth Inhibition % (Day)
[7] = Rattus norvegicus, 120 h, day 5, read-out: Growth Inhibition % (Day)
[8] = Rattus norvegicus, 120 h, 10 μg/mL, day 5, read-out: Growth Inhibition % (Day)
[9] = Rattus norvegicus, 288 h, day 12, read-out: Growth Inhibition % (Day)
[10] = Rattus norvegicus, 288 h, 4 μg/mL, day 12, read-out: Growth Inhibition % (Day)
[11] = Rattus norvegicus, 288 h, 10 μg/mL, day 12, read-out: Growth Inhibition % (Day)
[12] = Rattus norvegicus, 168 h, 10 μg/mL, day 7, read-out: Growth Inhibition % (Day)
[13] = Rattus norvegicus, 168 h, day 7, read-out: Growth Inhibition % (Day)
[14] = Rattus norvegicus, 168 h, 4 μg/mL, day 7, read-out: Growth Inhibition % (Day)

## CC(C)c1cccc(C(C)C)c1NC(=O)c1ccccc1S(=O)(=O)Nc1c(C(C)C)cccc1C(C)C [Example 1, N-(2,6,-Diisopropylphenyl)-2-(2,6-diisopropylphenylsulfamoyl)-benzamide]
[1]
  % Cytotoxicity: 94%
Rat aorta ring; 4 μg/mL, day 7
  Growth Inhibition % (Day): 100 (7) %
Rat aorta ring; 4 μg/mL, day 14
  Growth Inhibition % (Day): 100 (14) %
Rat aorta ring; 20 μg/mL, day 7
  Growth Inhibition % (Day): 98 (7) %
Rat aorta ring; 20 μg/mL, day 14
  Growth Inhibition % (Day): 98 (14) %
Rat aorta ring; 50 μg/mL, day 7
  Growth Inhibition % (Day): 100 (7) %
Rat aorta ring; 50 μg/mL, day 14
  Growth Inhibition % (Day): 100 (14) %
HUVEC [2]
  IC50: 2400 ± 500 nM

## O=C(Nc1ccccc1)c1ccccc1S(=O)(=O)Nc1ccccc1 [Example 2, N-Phenyl-2-phenylsulfamoylbenzamide]
Rat aorta ring; [6]
  inhibition at 4 µg/mL: 50%
Rat aorta ring; Rattus norvegicus, 120 h, 20 μg/mL, day 5, read-out: Growth Inhibition % (Day)
  inhibition at 20 µg/mL: 90%
Rat aorta ring; Rattus norvegicus, 120 h, 50 μg/mL, day 5, read-out: Growth Inhibition % (Day)
  inhibition at 50 µg/mL: 70%

## COc1ccc(NS(=O)(=O)c2ccccc2NC(=O)c2ccncc2)cc1 [Example 3, N-[2-(4-Methoxyphenylsulfamoyl)-phenyl]-isonicotinamide]
[3]
  cytotoxicity at 72 hours, 100 µM: 92%
Rat aorta ring; [7]
  inhibition at 0.5 µg/mL: 100%
  inhibition at 1 µg/mL: 100%
Rat aorta ring; [6]
  inhibition at 4 µg/mL: 100%
Rat aorta ring; [8]
  inhibition at 10 µg/mL: 100%
Rat aorta ring; [9]
  inhibition at 0.5 µg/mL: 60%
  inhibition at 1 µg/mL: 100%
Rat aorta ring; [10]
  inhibition at 4 µg/mL: 100%
Rat aorta ring; [11]
  inhibition at 10 µg/mL: 100%
HUVEC [4]
  IC50: 480 ± 270 nM
HUVEC [5]
  IC50: 680 ± 170 nM
HUVEC [2]; Homo sapiens
  IC50: 290 ± 220 nM

## COc1ccc(NS(=O)(=O)c2ccccc2NC(=O)c2ccc([N+](=O)[O-])cc2)cc1 [Example 4, N-[2-(4-Methoxyphenylsulfamoyl)-phenyl]-4-nitrobenzamide]
[3]
  cytotoxicity at 72 hours, 100 µM: 56%

## COc1ccc(NS(=O)(=O)c2ccccc2NC(=O)c2ccc(F)cc2)cc1 [Example 5, N-[2-(4-Methoxyphenylsulfamoyl)-phenyl]-4-fluorobenzamide]
[3]
  cytotoxicity at 72 hours, 100 µM: 91%
Rat aorta ring; [8]
  inhibition at 10 µg/mL: 80%
Rat aorta ring; [11]
  inhibition at 10 µg/mL: 70%
HUVEC [4]
  IC50: 36100 ± 9400 nM
HUVEC [2]; Homo sapiens
  IC50: 7100 ± 2700 nM

## CC(C)c1cccc(C(C)C)c1NC(=O)c1ccccc1C(=O)Nc1c(C(C)C)cccc1C(C)C [Example 6, N,N′-Bis-(2,6-diisopropylphenyl)-phthalamide]
Rat aorta ring; [12]
  inhibition at 10 µg/mL: 10%

## COc1ccc(S(=O)(=O)Nc2ccccc2C(=O)Nc2ccncc2)cc1 [Example 8, 2-(4-Methoxybenzenesulfonylamino)-N-pyridin-4-yl-benzamide]
[3]
  cytotoxicity at 72 hours, 100 µM: 84%
Rat aorta ring; [8]
  inhibition at 10 µg/mL: 80%
Rat aorta ring; [11]
  inhibition at 10 µg/mL: 30%

## COc1ccc(NS(=O)(=O)c2ccccc2S(=O)(=O)Nc2ccc(OC)cc2)cc1 [Example 12, Benzene-1,2-disulfonic acid bis-[(4-methoxyphenyl)-amide]]
Rat aorta ring; [11]
  inhibition at 10 µg/mL: 20%
HUVEC [4]
  IC50: > 50000 nM
HUVEC [5]
  IC50: 2300 nM
HUVEC [2]; Homo sapiens
  IC50: > 75000 nM

## COc1ccc(NS(=O)(=O)c2ccccc2NS(=O)(=O)c2cccs2)cc1 [Example 13, Thiophene-2-sulfonic acid [2-(4-methoxyphenylsulfamoyl)-phenyl]-amide]
Rat aorta ring; [13]
  inhibition at 0.5 µg/mL: 90%
  inhibition at 1 µg/mL: 100%
Rat aorta ring; [14]
  inhibition at 4 µg/mL: 100%
Rat aorta ring; [12]
  inhibition at 10 µg/mL: 100%
Rat aorta ring; [9]
  inhibition at 0.5 µg/mL: 90%
  inhibition at 1 µg/mL: 100%
Rat aorta ring; [10]
  inhibition at 4 µg/mL: 100%
Rat aorta ring; [11]
  inhibition at 10 µg/mL: 100%
HUVEC [4]
  IC50: 410 ± 30 nM
HUVEC [5]
  IC50: 620 ± 250 nM
HUVEC [2]; Homo sapiens
  IC50: 280 ± 220 nM

## COc1ccc(N(Cc2ccccc2)S(=O)(=O)c2ccccc2C(=O)Nc2ccncc2)cc1 [Example 15, 2-[Benzyl-(4-methoxyphenyl)-sulfamoyl]-N-pyridin-4-yl-benzamide]
Rat aorta ring; [14]
  inhibition at 4 µg/mL: 90%

## COc1ccc(NS(=O)(=O)c2ccccc2C(=O)Nc2ccncc2)cc1 [Example 16]
Rat aorta ring; 10 μg/mL, day 7
  Growth Inhibition % (Day): 70 (7) %
Rat aorta ring; 10 μg/mL, day 12
  Growth Inhibition % (Day): 10 (12) %
